{
  "source": "patent US8030547B2",
  "about": "“Gene coding for acetolactate synthase” (priority 2002, dated 2011)",
  "key": {"[1]": {"molecular_target": "T1, GST fusion P171H/R172S mutant ALS protein (Oryza sativa subsp. japonica, UniProt Q6K2E8, P171H/R172S)", "T1 construct": "made in house; host or cells: E. coli JM109, pGEX-2T(ALS P171H, R172S mutant); crude supernatant", "T1 sequence (Q6K2E8 44-644 P171H/R172S)": "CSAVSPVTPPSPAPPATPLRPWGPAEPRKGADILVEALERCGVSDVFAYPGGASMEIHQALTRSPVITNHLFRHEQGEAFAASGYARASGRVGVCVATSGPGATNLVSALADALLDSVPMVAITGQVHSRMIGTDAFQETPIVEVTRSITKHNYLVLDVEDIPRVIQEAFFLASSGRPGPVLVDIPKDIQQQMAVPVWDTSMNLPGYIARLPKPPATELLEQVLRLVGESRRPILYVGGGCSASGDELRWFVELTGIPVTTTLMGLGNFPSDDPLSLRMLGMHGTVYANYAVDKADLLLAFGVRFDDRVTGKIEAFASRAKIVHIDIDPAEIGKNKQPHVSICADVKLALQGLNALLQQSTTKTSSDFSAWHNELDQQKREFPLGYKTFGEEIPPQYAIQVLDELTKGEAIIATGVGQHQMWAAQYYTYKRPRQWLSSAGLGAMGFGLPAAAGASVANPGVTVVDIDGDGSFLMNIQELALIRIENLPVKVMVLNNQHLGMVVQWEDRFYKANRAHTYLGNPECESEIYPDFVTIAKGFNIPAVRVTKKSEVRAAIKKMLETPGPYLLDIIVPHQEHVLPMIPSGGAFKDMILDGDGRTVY", "assay": "Herbicide sensitivity of ALS protein expressed in E. coli (crude enzyme solution), P171H/R172S", "type": "biochemical, rice (Oryza sativa var. Kinmaze)", "details": "for RS ratio/ predicted RS ratio / Predicted RS ratio: P171H/R172S mutant; for RS ratio: P171H/R172S mutant vs wild type; for Predicted RS ratio: product of RS ratios of the 1-point mutants", "method": "(§1) ALS activity resulting from the mutant ALS protein contained in the eluted fractions apportioned into each test tube for apportioning was measured as follows. A reaction solution to be used in a measurement reaction was prepared by mixing an eluted fraction to be measured with a solution comprising 20 mM sodium pyruvate, 0.5 mM TPP, 0.5 mM MgCl2, 10 μM FAD and 20 mM potassium phosphate buffer (pH 7.5). One ml of this reaction solution was used. After the eluted fraction to be measured was added, the measurement reaction was performed at 30° C. for 40 to 60 minutes. Then, the reaction was stopped by addition of 0.1 ml of 6N sulfuric acid (or 0.25 N sodium hydroxide).\n(§2) After the reaction was stopped, the reaction solution was incubated at 60° C. for 10 minutes, thereby converting acetolactate contained in the reaction solution to acetoin.\n(§3) Then, to quantify acetoin contained in the reaction solution, 1 ml of 0.5% (w/v) creatine and 1 ml of 5% (w/v) α-naphthol dissolved in 2.5 N sodium hydroxide was added to the reaction solution, followed by incubation at 37° C. for 10 minutes. Acetoin was then quantified by color comparison of the absorbance (at 525 nm) of the reaction solution, thereby evaluating ALS activity. In addition, since the reaction solution contained a small amount of sodium pyruvate, reaction time 0 was used as control.\n(§4) E. coli transformed with pGEX-2T(ALS-wild) constructed in Example 3(5), E. coli transformed with pGEX-2T(ALS-W548L mutant) constructed in Example 5, E. coli transformed with pGEX-2T(ALS-S627I mutant) constructed in Example 5, E. coli transformed with pGEX-2T(ALS P171H mutant) constructed in Example 6, E. coli transformed with pGEX-2T(ALS R172S mutant) constructed in Example 6, E. coli transformed with pGEX-2T(ALS P171H, R172S mutant) constructed in Example 7, E. coli transformed with pGEX-2T(ALS-P171H, W548L mutant) constructed in Example 8, E. coli transformed with pGEX-2T(ALS-P171H, S627I mutant) constructed in Example 8, and E. coli transformed with pGEX-2T(ALS-P171H, W548L, S627I mutant) constructed in Example 9 were respectively shake-cultured (pre-culture) at 27° C. in 2 ml of LB liquid medium containing ampicillin. These types of E. coli were respectively cultured in 250 ml of LB liquid medium containing ampicillin using 1 ml of the pre-culture solution. After culturing overnight, 1 mM IPTG was added to the media, and then culturing was performed for a further 3 to 4 hours, so that the expression of GST fusion protein was induced. In addition, the cells were stored at −80° C. after washing.\n(§5) Preparation and purification of ALS from E. coli were performed by the following method. First, the pellet of the transformant E. coli stored at −80° C. was suspended in ALS extraction buffer (potassium phosphate buffer (pH 7.5) containing 30% glycerol and 0.5 mM MgCl2). Specifically, 2.5 ml of the buffer was added to the pellet obtained from 50 ml of the culture solution. The suspension was subjected to ultrasonication (Heat Systems-Ultrasonics, Sonicator W-225R, micro chip, output control 8, interval of approximately 1 second, twice (40 seconds each)), and subjected to centrifugation at 15000×g, 4° C. for 20 minutes, thereby obtaining the supernatant as a crude enzyme solution.\n(§6) Herbicide sensitivity of the wild type ALS protein and that of mutant ALS protein were examined using the 9 types of crude enzyme solutions obtained in Example 10. Herbicide sensitivity test was performed according to procedures almost the same as those in Example 2. However, in this example, reaction temperature was 37° C., reaction time was 30 minutes, and 10 mM valine was added to the reaction solution to inhibit ALS activity derived from E. coli. Further, three types of herbicides, bispyribac-sodium, pyrithiobac-sodium, and pyriminobac, were used as PC herbicides; chlorsulfuron was used as a sulfonylurea herbicide; and imazaquin was used as an imidazolinon herbicide. […]"}, "[2]": {"molecular_target": "T2, GST fusion P171H/S627I mutant ALS protein (Oryza sativa subsp. japonica, UniProt Q6K2E8, P171H/S627I)", "T2 construct": "made in house; host or cells: E. coli, pGEX-2T(ALS-P171H, S627I mutant); crude supernatant", "T2 sequence (Q6K2E8 44-644 P171H/S627I)": "as the sequence (Q6K2E8 44-644 P171H/R172S) above, with S129R, S584I counted along it", "assay": "Herbicide sensitivity of ALS protein expressed in E. coli (crude enzyme solution), P171H/S627I", "type": "biochemical, rice (Oryza sativa var. Kinmaze)", "details": "for RS ratio/ predicted RS ratio / Predicted RS ratio: P171H/S627I mutant; for RS ratio: P171H/S627I mutant vs wild type; for Predicted RS ratio: product of RS ratios of the 1-point mutants", "method": "as §1, §2, §3, §4, §5, §6"}},
  "data": [
    {"smiles": "COc1cc(OC)nc(Oc2cccc(Oc3nc(OC)cc(OC)n3)c2C(=O)O)n1", "note": "[bispyribac-sodium]", "values": [
      {"measurement": "IC50", "setting": "[1]", "result": 0.048, "unit": "µM"},
      {"measurement": "RS ratio/ predicted RS ratio", "setting": "[1]", "result": 0.89},
      {"measurement": "RS ratio", "setting": "[1]", "result": 7.6},
      {"measurement": "Predicted RS ratio", "setting": "[1]", "result": 8.5},
      {"measurement": "IC50", "setting": "[2]", "result": 23, "unit": "µM"},
      {"measurement": "RS ratio/ predicted RS ratio", "setting": "[2]", "result": 10},
      {"measurement": "RS ratio", "setting": "[2]", "result": 3700},
      {"measurement": "Predicted RS ratio", "setting": "[2]", "result": 360}
    ]},
    {"smiles": "COc1nc(C)nc(NC(=O)NS(=O)(=O)c2ccccc2Cl)n1", "note": "[chlorsulfuron]", "values": [
      {"measurement": "IC50", "setting": "[1]", "result": 5.5, "unit": "µM"},
      {"measurement": "RS ratio/ predicted RS ratio", "setting": "[1]", "result": 5.8},
      {"measurement": "RS ratio", "setting": "[1]", "result": 420},
      {"measurement": "Predicted RS ratio", "setting": "[1]", "result": 72},
      {"measurement": "IC50", "setting": "[2]", "result": 9.9, "unit": "µM"},
      {"measurement": "RS ratio/ predicted RS ratio", "setting": "[2]", "result": 3.8},
      {"measurement": "RS ratio", "setting": "[2]", "result": 760},
      {"measurement": "Predicted RS ratio", "setting": "[2]", "result": 200}
    ]},
    {"smiles": "CC(C)C1(C)N=C(c2nc3ccccc3cc2C(=O)O)NC1=O", "note": "(stereo not drawn) [imazaquin]", "values": [
      {"measurement": "IC50", "setting": "[1]", "result": 3.9, "unit": "µM"},
      {"measurement": "RS ratio/ predicted RS ratio", "setting": "[1]", "result": 1.2},
      {"measurement": "RS ratio", "setting": "[1]", "result": 1.8},
      {"measurement": "Predicted RS ratio", "setting": "[1]", "result": 1.5},
      {"measurement": "IC50", "setting": "[2]", "result": 71, "unit": "µM"},
      {"measurement": "RS ratio/ predicted RS ratio", "setting": "[2]", "result": 3.2},
      {"measurement": "RS ratio", "setting": "[2]", "result": 32},
      {"measurement": "Predicted RS ratio", "setting": "[2]", "result": 10}
    ]}
  ]
}
